Results: patent US20260062387A1, “SALT-INDUCIBLE KINASE INHIBITOR COMPOUND AND PHARMACEUTICAL COMPOSITION INCLUDING THE SAME” (MITSUBISHI TANABE PHARMA CORPORATION, priority 2023, published 2026)

What was measured:
Format in all cases: biochemical
[1] = target: GST-tagged SIK1 (Homo sapiens (Human), UniProt P57059); assay: SIK1 inhibition test (ADP-Glo Max Assay); details: enzyme 20 nM, AMARA Peptide 200 μM, ATP 1 mM, 2 hours room temperature
Protocol: (§1) The compounds described in Examples above were used in the SIK1, SIK2, and SIK3 inhibition test.
(§2) The inhibitory activity of the compound for SIK1, SIK2, and SIK3 enzymes was assayed by measuring the amount of ADP, an enzyme reaction product, with ADP-Glo™ Max Assay (Promega). Enzymes, specifically, GST-tagged SIK1 (Carna Biosciences, Inc.), GST-tagged SIK2 (Carna Biosciences, Inc.), and GST-tagged SIK3 (SignalChem) were prepared in a reaction buffer (15 mM tris-hydrochloric acid buffer (pH 7.5), 0.001% Triton X-100, 0.01% BSA) so that the final concentration would be 20 nM, 3 nM, and 100 nM. Enzyme solutions were thus formed. In a reaction buffer, AMARA Peptide (SignalChem) as a substrate with a final concentration of 200 μM (SIK1, SIK2) or 100 μM (SIK3), ATP (Promega) with a final concentration of 1 mM, and magnesium chloride with a final concentration of 5 mM were prepared. Substrate solutions were thus formed. The enzyme solution, the substrate solution, and a DMSO solution of a concentration of the test compound were mixed together and reacted at room temperature for 2 hours. After the reaction, ADP-Glo™ Reagent (Promega) was added, and the reaction was performed at room temperature for 30 minutes. Subsequently, ADP-Glo™ Max Detection Reagent (Promega) was added, and the reaction was performed at room temperature for 30 minutes. The emission by the luciferase reaction was measured with PHERAstar FSX (BMG LABTECH).
(§3) The inhibitory ratio (%) was calculated by: % Inhibition={1−(intensity of sample−intensity of blank (no enzyme solution added))/(intensity of control (DMSO alone)−intensity of blank)}×100. The inhibitory concentration IC50 was calculated based on 16 data values obtained in the concentration response test.

[2] = target: GST-tagged SIK2 (Homo sapiens (Human), UniProt Q9H0K1); assay: SIK2 inhibition test (ADP-Glo Max Assay); details: enzyme 3 nM, AMARA Peptide 200 μM, ATP 1 mM, 2 hours room temperature
GST-tagged SIK2, sequence (Q9H0K1 whole entry): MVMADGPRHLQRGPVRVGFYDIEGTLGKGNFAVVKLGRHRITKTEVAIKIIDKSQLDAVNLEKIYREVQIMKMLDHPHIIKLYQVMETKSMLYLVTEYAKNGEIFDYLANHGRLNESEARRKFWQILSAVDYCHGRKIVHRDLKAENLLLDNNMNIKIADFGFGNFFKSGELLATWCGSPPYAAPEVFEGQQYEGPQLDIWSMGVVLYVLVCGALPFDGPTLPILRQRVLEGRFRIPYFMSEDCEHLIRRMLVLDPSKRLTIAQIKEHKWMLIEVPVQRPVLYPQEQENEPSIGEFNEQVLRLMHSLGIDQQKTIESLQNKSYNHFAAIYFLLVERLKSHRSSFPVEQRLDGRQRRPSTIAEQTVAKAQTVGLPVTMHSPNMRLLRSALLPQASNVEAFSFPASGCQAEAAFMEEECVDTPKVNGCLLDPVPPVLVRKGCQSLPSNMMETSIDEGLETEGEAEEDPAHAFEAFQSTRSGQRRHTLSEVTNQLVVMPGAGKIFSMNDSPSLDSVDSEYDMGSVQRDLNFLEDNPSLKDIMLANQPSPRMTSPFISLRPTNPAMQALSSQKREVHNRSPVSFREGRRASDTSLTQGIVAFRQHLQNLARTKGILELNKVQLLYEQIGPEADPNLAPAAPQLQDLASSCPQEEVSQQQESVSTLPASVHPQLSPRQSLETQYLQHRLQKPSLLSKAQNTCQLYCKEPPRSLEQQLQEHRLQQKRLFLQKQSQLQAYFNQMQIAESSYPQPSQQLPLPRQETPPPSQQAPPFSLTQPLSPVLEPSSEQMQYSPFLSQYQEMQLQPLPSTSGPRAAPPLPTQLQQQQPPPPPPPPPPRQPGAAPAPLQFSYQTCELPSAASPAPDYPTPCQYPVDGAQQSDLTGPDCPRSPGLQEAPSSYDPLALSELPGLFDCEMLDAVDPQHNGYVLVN
Protocol: as §1, §2, §3

[3] = target: GST-tagged SIK3 (Homo sapiens (Human), UniProt Q9Y2K2); assay: SIK3 inhibition test (ADP-Glo Max Assay); details: enzyme 100 nM, AMARA Peptide 100 μM, ATP 1 mM, 2 hours room temperature
GST-tagged SIK3, sequence (Q9Y2K2 whole entry): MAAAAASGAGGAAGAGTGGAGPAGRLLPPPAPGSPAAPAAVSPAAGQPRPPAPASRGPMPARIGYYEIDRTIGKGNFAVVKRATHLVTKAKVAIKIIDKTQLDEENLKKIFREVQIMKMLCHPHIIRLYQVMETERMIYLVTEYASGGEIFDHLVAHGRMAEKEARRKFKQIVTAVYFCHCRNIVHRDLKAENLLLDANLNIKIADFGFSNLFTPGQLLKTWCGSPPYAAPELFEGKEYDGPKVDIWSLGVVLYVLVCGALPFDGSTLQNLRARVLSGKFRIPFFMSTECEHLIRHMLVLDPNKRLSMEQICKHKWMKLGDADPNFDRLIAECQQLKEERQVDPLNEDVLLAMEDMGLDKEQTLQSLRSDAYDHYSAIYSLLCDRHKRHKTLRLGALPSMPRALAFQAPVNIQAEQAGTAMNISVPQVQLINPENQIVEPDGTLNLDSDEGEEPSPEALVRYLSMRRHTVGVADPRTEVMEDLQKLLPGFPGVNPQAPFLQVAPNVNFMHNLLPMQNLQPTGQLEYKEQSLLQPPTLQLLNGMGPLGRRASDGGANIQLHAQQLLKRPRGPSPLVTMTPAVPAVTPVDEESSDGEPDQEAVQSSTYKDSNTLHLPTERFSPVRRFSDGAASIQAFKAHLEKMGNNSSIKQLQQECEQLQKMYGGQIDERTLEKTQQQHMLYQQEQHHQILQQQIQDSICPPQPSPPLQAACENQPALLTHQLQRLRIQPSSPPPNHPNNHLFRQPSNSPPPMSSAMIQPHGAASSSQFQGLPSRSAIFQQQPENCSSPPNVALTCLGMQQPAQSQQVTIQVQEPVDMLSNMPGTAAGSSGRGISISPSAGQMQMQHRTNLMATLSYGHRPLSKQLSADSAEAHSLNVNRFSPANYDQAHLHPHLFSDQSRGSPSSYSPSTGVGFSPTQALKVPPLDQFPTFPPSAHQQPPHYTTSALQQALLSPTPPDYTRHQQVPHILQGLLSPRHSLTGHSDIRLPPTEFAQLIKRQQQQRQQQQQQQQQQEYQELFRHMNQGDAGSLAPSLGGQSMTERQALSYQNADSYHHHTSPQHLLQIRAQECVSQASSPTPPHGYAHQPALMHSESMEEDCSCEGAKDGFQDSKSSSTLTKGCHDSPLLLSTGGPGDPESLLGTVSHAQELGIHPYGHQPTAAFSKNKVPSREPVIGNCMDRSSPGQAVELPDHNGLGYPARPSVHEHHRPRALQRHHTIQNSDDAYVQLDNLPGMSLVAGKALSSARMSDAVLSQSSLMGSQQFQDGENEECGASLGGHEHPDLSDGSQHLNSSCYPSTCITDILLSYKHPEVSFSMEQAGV
Protocol: as §1, §2, §3

GST-tagged SIK1, sequence (P57059 whole entry): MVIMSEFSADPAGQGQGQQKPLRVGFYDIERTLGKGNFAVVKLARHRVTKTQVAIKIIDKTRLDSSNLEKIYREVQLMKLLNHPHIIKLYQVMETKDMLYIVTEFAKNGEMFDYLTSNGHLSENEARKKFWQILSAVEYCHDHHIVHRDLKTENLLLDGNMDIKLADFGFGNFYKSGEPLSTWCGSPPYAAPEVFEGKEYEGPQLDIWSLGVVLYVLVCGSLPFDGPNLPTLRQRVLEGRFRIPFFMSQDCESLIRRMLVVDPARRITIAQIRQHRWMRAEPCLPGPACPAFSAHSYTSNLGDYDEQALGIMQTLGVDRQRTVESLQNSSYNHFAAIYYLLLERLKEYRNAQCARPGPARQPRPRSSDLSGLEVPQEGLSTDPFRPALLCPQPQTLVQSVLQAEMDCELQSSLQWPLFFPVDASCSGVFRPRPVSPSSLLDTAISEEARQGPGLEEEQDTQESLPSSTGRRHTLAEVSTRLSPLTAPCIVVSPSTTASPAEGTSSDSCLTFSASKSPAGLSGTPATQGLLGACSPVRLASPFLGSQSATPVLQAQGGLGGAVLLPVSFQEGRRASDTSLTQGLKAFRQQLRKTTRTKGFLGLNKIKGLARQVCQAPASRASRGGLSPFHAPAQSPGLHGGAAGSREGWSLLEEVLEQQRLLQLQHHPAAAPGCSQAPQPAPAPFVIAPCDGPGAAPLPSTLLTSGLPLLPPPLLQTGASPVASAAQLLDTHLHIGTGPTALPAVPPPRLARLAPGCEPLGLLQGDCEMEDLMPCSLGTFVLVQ

| Compound | IC50 [1] | IC50 [2] | IC50 [3] |
| --- | --- | --- | --- |
| COc1cc(-c2c3c(C#N)cc(-c4cnn(CCN(C)C)c4)cc3nn2C)cc(OC(F)F)c1C(=O)N[C@@H]1C[C@@H]1F [Example 19, 4-[4-cyano-6-[1-[2-(dimethylamino)ethyl]pyrazol-4-yl]-2-methylindazol-3-yl]-2-(difluoromethoxy)-N-[(1R,2S)-2-fluorocyclopropyl]-6-methoxybenzamide] | 2.5 nM | 1.3 nM | 8.7 nM |
| COc1cc(-c2c3c(C#N)cc(-c4cnn(C(C)(C)C)c4)cc3nn2C)cc(OC(F)F)c1C(=O)N[C@@H]1C[C@@H]1F [Example 20, 4-[6-(1-tert-butylpyrazol-4-yl)-4-cyano-2-methylindazol-3-yl]-2-(difluoromethoxy)-N-[(1R,2S)-2-fluorocyclopropyl]-6-methoxybenzamide] | 4.4 nM | 5.8 nM | 13.7 nM |
| COc1cc(-c2c3c(C#N)cc(-c4cc(C)ns4)cc3nn2C)cc(OC(F)F)c1C(=O)N[C@@H]1C[C@@H]1F [Example 21, 4-[4-cyano-2-methyl-6-(3-methyl-1,2-thiazol-5-yl)indazol-3-yl]-2-(difluoromethoxy)-N-[(1R,2S)-2-fluorocyclopropyl]-6-methoxybenzamide] | 16.9 nM | 5.6 nM | 4 nM |
| COc1cc(-c2c3c(C#N)cc(-c4cnn(C5CCOC5)c4)cc3nn2C)cc(OC(F)F)c1C(=O)N[C@@H]1C[C@@H]1F (stereo partly drawn) [Example 22, 4-[4-cyano-2-methyl-6-[1-(oxolan-3-yl)pyrazol-4-yl]indazol-3-yl]-2-(difluoromethoxy)-N-[(1R,2S)-2-fluorocyclopropyl]-6-methoxybenzamide] | 2 nM | 3.2 nM | 7.7 nM |
| COc1cc(-c2c3c(C#N)cc(-c4cnn(C)c4)cc3nn2C)cc(OC(F)F)c1C(=O)N[C@@H]1CC1(F)F [Example 23, 4-[4-cyano-2-methyl-6-(1-methylpyrazol-4-yl)indazol-3-yl]-N-[(1R)-2,2-difluorocyclopropyl]-2-(difluoromethoxy)-6-methoxybenzamide] | 2.1 nM | 2.5 nM | 5 nM |
| COc1cc(-c2c3c(C#N)cc(-c4cc[nH]n4)cc3nn2C)cc(OC(F)F)c1C(=O)N[C@@H]1C[C@@H]1F [Example 24, 4-[4-cyano-2-methyl-6-(1H-pyrazol-3-yl)indazol-3-yl]-2-(difluoromethoxy)-N-[(1R,2S)-2-fluorocyclopropyl]-6-methoxybenzamide] | 6.6 nM | 6.5 nM | 11.8 nM |
| COc1cc(-c2c3c(C#N)cc(-c4cnn(C)c4)cc3nn2C)cc(OC(F)F)c1C(=O)N1CC(O)(C(F)F)C1 [Example 25, 3-[3-(difluoromethoxy)-4-[3-(difluoromethyl)-3-hydroxyazetidin-1-carbonyl]-5-methoxyphenyl]-2-methyl-6-(1-methylpyrazol-4-yl)indazole-4-carbonitrile] | 9.6 nM | 10.5 nM | 12.8 nM |
| COc1cc(-c2c3c(OCC4COC4)cc(-c4cnn(C)c4)cc3nn2C)cc(OC(F)F)c1C(=O)N1CC(O)(C(F)(F)F)C1 [Example 26, [2-(difluoromethoxy)-6-methoxy-4-[2-methyl-6-(1-methylpyrazol-4-yl)-4-(oxetan-3-ylmethoxy)indazol-3-yl]phenyl]-[3-hydroxy-3-(trifluoromethyl)azetidin-1-yl]methanone] | 7.1 nM | 4.3 nM | 11.2 nM |
| COc1cc(-c2c3c(OCC4CCC4)cc(-c4cnn(C)c4)cc3nn2C)cc(OC(F)F)c1C(=O)N1CC(O)(C(F)(F)F)C1 [Example 27, [4-[4-(cyclobutylmethoxy)-2-methyl-6-(1-methylpyrazol-4-yl)indazol-3-yl]-2-(difluoromethoxy)-6-methoxyphenyl]-[3-hydroxy-3-(trifluoromethyl)azetidin-1-yl]methanone] | 13.7 nM | 12.7 nM | 16 nM |
| COc1cc(-c2c3c(OCCCO)cc(-c4cnn(C)c4)cc3nn2C)cc(OC(F)F)c1C(=O)N1CC(O)(C(F)(F)F)C1 [Example 28, [2-(difluoromethoxy)-4-[4-(3-hydroxypropoxy)-2-methyl-6-(1-methylpyrazol-4-yl)indazol-3-yl]-6-methoxyphenyl]-[3-Hydroxy-3-(trifluoromethyl)azetidin-1-yl]methanone] | 7.3 nM | 4.7 nM | 13.6 nM |
| COc1cc(-c2c3c(OCC4CC4)cc(-c4cnn(C)c4)cc3nn2C)cc(OC(F)F)c1C(=O)N1CC(O)(C(F)(F)F)C1 [Example 29, [4-[4-(cyclopropylmethoxy)-2-methyl-6-(1-methylpyrazol-4-yl)indazol-3-yl]-2-(difluoromethoxy)-6-methoxyphenyl]-[3-hydroxy-3-(trifluoromethyl)azetidin-1-yl]methanone] | 8.6 nM | 10.3 nM | 13.2 nM |
| COc1cc(-c2c3c(OCC(F)(F)F)cc(-c4cnn(C)c4)cc3nn2C)cc(OC(F)F)c1C(=O)N1CC(O)(C(F)(F)F)C1 [Example 30, [2-(difluoromethoxy)-6-methoxy-4-[2-methyl-6-(1-methylpyrazol-4-yl)-4-(2,2,2-trifluoroethoxy)indazol-3-yl]phenyl]-[3-hydroxy-3-(trifluoromethyl)azetidin-1-yl]methanone] | 5.1 nM | 6.6 nM | 3.6 nM |
| COc1cc(-c2c3c(C#N)cc(-c4cnn(CC(F)F)c4)cc3nn2C)cc(OC(F)F)c1C(=O)N[C@@H]1C[C@@H]1F [Example 31, 4-[4-cyano-6-[1-(2,2-difluoroethyl)pyrazol-4-yl]-2-methylindazol-3-yl]-2-(difluoromethoxy)-N-[(1R, 2S)-2-fluorocyclopropyl]-6-methoxybenzamide] | 3.7 nM | 3.3 nM | 7.8 nM |
| COc1cc(-c2c3c(C#N)cc(-c4cnn(CC5CC5)c4)cc3nn2C)cc(OC(F)F)c1C(=O)N[C@@H]1C[C@@H]1F [Example 32, 4-[4-cyano-6-[1-(cyclopropylmethyl)pyrazol-4-yl]-2-methylindazol-3-yl]-2-(difluoromethoxy)-N-[(1R, 2S)-2-fluorocyclopropyl]-6-methoxybenzamide] | 5 nM | 4.5 nM | 8.9 nM |
| COc1cc(-c2c3c(C#N)cc(-c4cnn(C(C)C)c4)cc3nn2C)cc(OC(F)F)c1C(=O)N[C@@H]1C[C@@H]1F [Example 33, 4-[4-cyano-2-methyl-6-(1-propan-2-ylpyrazol-4-yl)indazol-3-yl]-2-(difluoromethoxy)-N-[(1R,2S)-2-fluorocyclopropyl]-6-methoxybenzamide] | 4.6 nM | 2.6 nM | 8.5 nM |
| COc1cc(-c2c3c(OCc4cccnc4)cc(-c4cnn(C)c4)cc3nn2C)cc(OC(F)F)c1C(=O)N1CC(O)(C(F)(F)F)C1 [Example 34, [2-(difluoromethoxy)-6-methoxy-4-[2-methyl-6-(1-methylpyrazol-4-yl)-4-(pyridin-3-ylmethoxy)indazol-3-yl]phenyl]-[3-hydroxy-3-(trifluoromethyl)azetidin-1-yl]methanone] | 0.4 nM | 1 nM | 2.9 nM |
| COc1cc(-c2c3c(OCc4ccncc4)cc(-c4cnn(C)c4)cc3nn2C)cc(OC(F)F)c1C(=O)N1CC(O)(C(F)(F)F)C1 [Example 35, [2-(difluoromethoxy)-6-methoxy-4-[2-methyl-6-(1-methylpyrazol-4-yl)-4-(pyridin-4-ylmethoxy)indazol-3-yl]phenyl]-[3-hydroxy-3-(trifluoromethyl)azetidin-1-yl]methanone] | 1.9 nM | 3 nM | 12.9 nM |
| COc1cc(-c2c3c(C#N)cc(-c4cnn(C)c4)cc3nn2C)cc(OC(F)F)c1C(=O)N1CC(N)(C(F)(F)F)C1 [Example 36, 3-[4-[3-amino-3-(trifluoromethyl)azetidin-1-carbonyl]-3-(difluoromethoxy)-5-methoxyphenyl]-2-methyl-6-(1-methylpyrazol-4-yl)indazole-4-carbonitrile] | 12.5 nM | 15.4 nM | 10.2 nM |
| COc1cc(-c2c3c(OC)cc(-c4cnn(C)c4)cc3nn2C)cc(OC(F)F)c1C(=O)N1CC(O)(C(F)F)C1 [Example 37, [2-(difluoromethoxy)-6-methoxy-4-[4-methoxy-2-methyl-6-(1-methylpyrazol-4-yl)indazol-3-yl]phenyl]-[3-(difluoromethyl)-3-hydroxyazetidin-1-yl]methanone] | 7.9 nM | 8.3 nM | 12.9 nM |
